What was measured:
[1] = test system: HCV replicon (Renilla luciferase reporter) in HUH-7 cells; experiment: HCV replicon luciferase reporter assay; type: cell-based, HCV strain 1b; conditions: Huh-7, 96 h, 4 days
Description: As a secondary assay, EC50 determinations from the replicon FRET assay were confirmed in a replicon luciferase reporter assay. Utilization of a replicon luciferase reporter assay was first described by Krieger et al (Krieger N, Lohmann V, and Bartenschlager R, J. Virol. 75(10):4614-4624 (2001)). The replicon construct described for our FRET assay was modified by inserting cDNA encoding a humanized form of the Renilla luciferase gene and a linker sequence fused directly to the 3′-end of the luciferase gene. This insert was introduced into the replicon construct using an AscI restriction site located in core, directly upstream of the neomycin marker gene. The adaptive mutation at position 1179 (serine to isoleucine) was also introduced (Blight K J, Kolykhalov, A A, Rice, C M, Science 290(5498):1972-1974). […] Following 4 days in a 37° C./5% CO2 incubator, cells were analyzed for Renilla Luciferase activity using the Promega Dual-Glo Luciferase Assay System. […] Plates were read on a Packard TopCount NXT using a luminescence program.
The percentage inhibition was calculated using the formula below: % control=average luciferase signal in experimental wells (+compound) average luciferase signal in DMSO control wells (− compound)
The values were graphed and analyzed using XLfit to obtain the EC50 value.

[2] = molecular target: T1, human liver cathepsin B (Homo sapiens, UniProt P07858); experiment: Specificity assay, cathepsin B (AMC substrate); type: biochemical
T1 construct: purchased Sigma or EMDbiosciences; host or cells: human liver (as named)
Protocol: The specificities of compounds of the present disclosure were determined against a variety of serine proteases: human neutrophil elastase (HNE), porcine pancreatic elastase (PPE) and human pancreatic chymotrypsin and one cysteine protease: human liver cathepsin B. In all cases, a 96-well plate format protocol using colorimetric p-nitroaniline (pNA) substrate or fluorometric Amino-Methyl-Coumarin (AMC) substrate, specific for each enzyme was used as described previously (PCT Patent Application No. WO 00/09543) with some modifications. All enzymes were purchased from Sigma or EMDbiosciences while the substrates were from Bachem.
Each pNA assay included a 2 h enzyme-inhibitor pre-incubation at room temperature followed by addition of substrate and hydrolysis to ˜15% conversion as measured on a Spectramax Pro microplate reader. The cathepsin B assay was initiated by adding substrate to a 10 min enzyme-inhibitor pre-incubation at room temperature, and the assay plate measured immediately using the Cytofluor Series 4000. Compound concentrations varied from 100 to 0.4 μM depending on their potency. […]
The percentage of inhibition was calculated using the formula: [1−((UVinh−UVblank)/(UVctl−UVblank))]×100 […]

With `COc1c(O[C@@H]2C[C@H]3C(=O)N[C@]4(C(=O)NS(=O)(=O)C5CC5)C[C@H]4/C=C\CCCCC[C@H](NC(=O)OC(C)(C)C)C(=O)N3C2)ccc2c(Cl)nccc12` [Compound 3] the EC50 [1] was 5.5 nM and the IC50 [2] was at least 100000 nM.

— patent US20080107623A1, “Inhibitors of Hepatitis C Virus” (Bristol-Myers Squibb Company, priority 2006, published 2008)
